In data set [1] the test system is normal PBMCs. Description: MTS cytotoxicity assay on PBMCs from normal donors. Particulars: for EC50: Homo sapiens, PBMC. Type of data set: cell-based, human. The method, then:
For toxicity studies involving normal blood cells, normal volunteers were enrolled in an IRB-approved protocol for blood collection. PBMCs were isolated from heparin-anticoagulated blood by ficoll-Hypaque density gradient centrifugation.
2.5×10^5 CLL cells were incubated in triplicate or quadruplicate in a 96-well tissue culture plate (Costar, Corning, N.Y.) with serial dilutions of LMP-420, fludarabine, and/or recombinant TNF-alpha (R&D Systems, Minneapolis, Minn.) in Hybridoma serum free media (SFM) (GIBCO/Invitrogen, Carlsbad, Calif.) containing 10% heat-inactivated fetal bovine serum (FBS) (Sigma) at 37° C. with 5% CO2. After 72 hours, 20 μl CellTiter 96® AQueous One Solution Cell Proliferation Assay (Promega, Madison, Wis.) MTS (3-(4,5 dimethylthiazol-2-yl)-5-(3-carboxymethoxyphenyl-2-(4-sulfophenyl)-2H-tetrazolium) reagent was added to each well and the absorbance was read at 490 nm on a Thermomax microplate reader (Molecular Devices, Sunnyvale, Calif.). We calculated fractional cytotoxicity as performed previously (Reference 12), comparing absorbance at 490 nm from treated cells to control cells incubated with media alone.
The concentration effective at killing 50% of CLL cells compared to media alone (ED50) was calculated when 50% fractional cytotoxicity occurred within the range of serial dilutions tested (Reference 12). If the ED50 fell below or above this range, it was set to either the lowest or the highest concentration tested, respectively, for the purposes of statistical analyses and graphical representation.
(In general: Tetrazolium assays rely on reduction of a dye to a coloured formazan, in cell work by metabolically active cells.)

The test system of data set [2] is normal PBMCs. The data set can be described thus: [3H]-thymidine proliferation assay, mitogen-stimulated normal PBMCs. Particulars: for IC50: Homo sapiens, PBMC, 96 h, read-out: IC50 for suppression of mitogen-induced proliferation. Type of data set: cell-based, human. The procedure:
CLL cells (2×10^5 cells/well) were cultured in quadruplicate in a volume of 200 μl in 96-well tissue culture plates for 96 hours with 1 μM CpG-oligodeoxynucleotides (ODN) DSP30 (Reference 14) (Midland Certified Reagent Company, Midland, Tex.) and 100 units/ml IL-2 (R&D Systems) in the presence or absence of drug. As controls, cells were treated with media without DSP30/IL-2. Cells were incubated with 1 μCi/well [methyl-^3H]-thymidine (specific activity 6.7 Ci/mmol, PerkinElmer, Waltham, Mass., USA) for 14-18 hours prior to harvesting onto glass-fiber filters using a semi-automated cell harvester. [^3H]-thymidine incorporation was measured as counts per minute (cpm) using a Tri-Carb 2100 timed-resolved liquid scintillation counter (PerkinElmer). The same protocol was utilized for proliferation assays with normal PBMCs, with the exception that growth was stimulated by treatment with 10 μg/ml Phytohemagglutinin-P (PHA, Sigma), 5 μg/ml concanavalin A (ConA, Sigma), 2 μg/ml pokeweed mitogen (PWM, Sigma), 25 ng/ml muromonab-CD3 (α-CD3, Ortho Pharmaceuticals, Raritan, N.J.), or 50 ng/ml phorbol myristate acetate (PMA, Sigma) plus 1 μg/ml ionomycin (iono, Sigma) for 96 hours. Proliferation is reported as percent of control (drug-treated cpm/control-treated cpm×100%).

Data set [3] concerns CD19-positive B-cell. The data set can be described thus: Annexin V apoptosis of normal B-lymphocytes in PBMCs. Type of data set: cell-based, human. Particulars: 72 hours. The method, then: PBMCs were cultured at 10^6 cells/ml in a 12-well tissue culture plate. Cells were treated for 72 hours with vehicle control or drug for 72 hours, then harvested as above for staining. PBMCs were resuspended at 2×10^5 cells/tube in 100 μl buffer (HBSS, 0.5% bovine serum albumin, 0.1% sodium azide) and incubated for 30 min with CD3-FITC or CD19-FITC antibodies according to the manufacturer's protocol (BD Biosciences). Cells were then incubated with PE-annexin V and 7-AAD (BD Biosciences) in annexin V binding buffer (BD Biosciences) for 15 minutes prior to analysis of apoptosis on the Guava EasyCyte™ Plus system.

Data set [4] deals with CD34+ hematopoietic progenitor cells (erythroid colonies). The data set can be described thus: Colony formation assay, erythroid colonies. It is filed as cell-based, human. The procedure:
(§1) CD34^+ hematopoietic progenitor cells were isolated from PBMCs from two healthy donors using the CD34 Microbead Kit (Miltenyi Biotec, Auburn, Calif.). 10^3 CD34^+-enriched cells were cultured in a 35 mm culture plate (1000 cells/plate) with or without LMP-420 or fludarabine in 1.1 ml Human Methylcellulose Complete Media (R&D Systems) according to the manufacturer's protocol. Plates were incubated for 14 days at 37° C. in humidified 5% CO2. Each treatment group was tested in triplicate. Colonies on plates were scored by two independent observers, blinded to the treatment groups, by microscopic evaluation under 10× and 20× power. Colonies were categorized as being of either erythroid or myeloid lineage.

Data set [5] has as its system CD34+ hematopoietic progenitor cells (myeloid colonies). Description: Colony formation assay, myeloid colonies. It is filed as cell-based, human. The procedure: as §1
A short description of data set [6]: Prior in vivo toxicity studies in rodents.

Like-named read-outs stand apart in the source and are kept apart here.

As to `Nc1nc(Cl)c2ncn(CCCCCB(O)O)c2n1` [LMP-420, 2-amino-6-chloro-9-[5(dihydroxyboryl)-pentyl] purine], in data set [1] (62 or 250 nM LMP-420 with fludarabine, 72 hours, n=3), the “potentiation of fludarabine cytotoxicity on normal PBMCs” value was “did not potentiate”. Besides, the EC50 was greater than 512 µM in data set [1] (72 hours, MTS, not reached at up to 512 μM, read-out: median ED50 on normal PBMCs) and greater than 512 µM in data set [1] (mean, PBMCs from healthy blood donors (n = 3-6), read-out: ED50 (μM), PBMC). Further, the “PBMC proliferation IC50 relative to ED50 in CLL cells” value in data set [2] is given as 100- to 250 fold. The IC50 in data set [2] (Con A, 96 hours) is 71 µM; in data set [2] (PHA, 96 hours), greater than 90 µM; in data set [2] (PMA/Iono, 96 hours), greater than 90 µM; in data set [2] (PWM, 96 hours), greater than 90 µM; in data set [2] (α-CD3, 96 hours) it was 33 µM; in data set [4] (Homo sapiens, 336 h, 14 days, healthy donors (n=2), read-out: mean IC50 for normal erythroid colony formation) it was 10 µM. The IC50 in data set [5] (Homo sapiens, 336 h, 14 days, healthy donors (n=2), read-out: mean IC50 for normal myeloid colony formation) came to 25 µM. Moreover, the “average percent drug-specific apoptosis, B-cells” value in data set [3] (1 μM, n=3) is 11%. Moreover, the “apoptosis in normal B-lymphocytes” value in data set [3] (concentrations up to 90 μM) is listed as “did not induce significant apoptosis”. For the same compound, the “erythroid colony IC50 relative to CLL ED50” value in data set [4] is listed as “greater than 40 fold”. Besides, the “myeloid colony IC50 relative to CLL ED50” value in data set [5] is listed as “greater than 40 fold”. In addition, the “peak plasma level at non-toxic doses” value in data set [6] was “greater than 10 μM”.

Values taken from patent US20110319360A1, “Method of including apoptosis/Cell death in leukemia cell using a purine nucleoside analogue” (U.S. Department of Veterans Affairs, priority 2010, published 2011).
